According to patent US20240082192A1, “TOPICAL F[…] PREGABALIN” (EGIS GYÓGYSZERGYÁR ZRT., priority 2021, published 2024):

Legend:
Wistar rats = experiment: Chronic constriction injury (CCI) rat model of neuropathy, paw withdrawal threshold with electronic von Frey device; format: in vivo; conditions: 16.66 mg/kg
Excerpt: Furthermore, based on the article Bennett G J, at al (Pain., A peripheral mononeuropathy in rat that produces disorders of pain sensation like those seen in man. 1988 April; 33(1):87-107) we have developed a method for the examination of the compositions of the present invention. Thus, we have examined the compositions according to the present invention also with a different model for measuring the alleviation of the peripheral neuropathic pain also. Namely, we have carried out examinations on rats using Chronic constriction injury (CCI) model. Three weeks following nerve injury rats were assessed for hind paw mechanical withdrawal thresholds. The paw withdrawal threshold (PWT) was determined with an Electronic von Frey device according to the modified up-down method of Dixon (Efficient analysis of experimental observations., Annu Rev Pharmacol Toxicol. 1980; 20:441-62). […] The method and results are shown in example 3 and on FIG. 9.
Thus, the compositions of the present invention are effective in the treatment of neuropathic pain. […]
Briefly, under isoflurane anesthesia small blunt dissection was made into the skin of rat right thigh then three loosely constrictive ligatures were placed around common sciatic nerve (chronic constriction injury CCI). Three weeks following nerve injury rats were assessed for hind paw mechanical withdrawal thresholds. […]

Mouse = conditions: topical 2.5% aqueous solution without other ingredients; cited from earlier work
human patient = conditions: same aqueous solution; cited from earlier work
[1] = compositions containing 1 and 3% of pregabalin; cited from earlier work
[2] = Pharmacokinetic studies, blood level of pregabalin after oral or topical administration

CC(C)C[C@H](CN)CC(=O)O [pregabalin]
reduction of hypersensitivity after oral administration (Wistar rats): not able to reduce hypersensitivity
alleviating effect 6 hours after administration (Mouse): the effect essentially disappeared
time of maximum alleviating effect (Mouse): 1 h
duration of reduction of neuropathic pain (human patient): 6 h
time after which the pain alleviation effect decreased [1]: 1.5 to 2 h
amount entering the bloodstream during topical treatment [2]: very small amounts
